Results as given in US11207320B2, “Compositions and methods for cancer expressing PDE3A or SLFN12” (The Broad Institute, Inc., priority 2015, dated 2021).
Read-outs that look alike come from different tables or passages of the source.

How the values were obtained:
PDE3 = details: Ruppert et al., Life Sci. 31, 2037-2043, 1982; cited from earlier work
PDE1C = molecular target: T1, PDE1C (Homo sapiens, UniProt Q14123); assay: Phosphodiesterase inhibition reactions (Caliper panel); format: biochemical; details: 100 nM
T1 construct: Caliper
Protocol: (§1) DNMDP concentration was 100 nM.

PDE4D3 = molecular target: T2, PDE4D3 (Homo sapiens, UniProt Q08499); assay: as above; format: biochemical; details: PDE4D3, 100 nM
T2 construct: Caliper
Protocol: as §1

PDE10A1 = molecular target: T3, PDE10A1 (Homo sapiens, UniProt Q9Y233); assay: as above; format: biochemical; details: PDE10A1, 100 nM
T3 construct: Caliper
Protocol: as §1

PDE4D7 = molecular target: T4, PDE4D7 (Homo sapiens, UniProt Q08499); assay: as above; format: biochemical; details: PDE4D7, 100 nM
T4 construct: Caliper
Protocol: as §1

PDE9A2 = molecular target: T5, PDE9A2 (Homo sapiens, UniProt O76083); assay: as above; format: biochemical; details: PDE9A2, 100 nM
T5 construct: Caliper
Protocol: as §1

PDE11A = molecular target: T6, PDE11A (Homo sapiens, UniProt Q9HCR9); assay: as above; format: biochemical; details: 100 nM
T6 construct: Caliper
Protocol: as §1

PDE3B = molecular target: T7, PDE3B (Homo sapiens, UniProt Q13370); assay: as above; format: biochemical; details: 100 nM
T7 construct: Caliper
Protocol: as §1

PDE1B = molecular target: T8, PDE1B (Homo sapiens, UniProt Q01064); assay: as above; format: biochemical; details: 100 nM
T8 construct: Caliper
Protocol: as §1

PDE4A1A = molecular target: T9, PDE4A1A (Homo sapiens, UniProt P27815); assay: as above; format: biochemical; details: 100 nM
T9 construct: Caliper
Protocol: as §1

PDE10A2 = molecular target: T10, PDE10A2 (Homo sapiens, UniProt Q9Y233); assay: as above; format: biochemical; details: PDE10A2, 100 nM
T10 construct: Caliper
Protocol: as §1

PDE2A = molecular target: T11, PDE2A (Homo sapiens, UniProt O00408); assay: as above; format: biochemical; details: 100 nM
T11 construct: Caliper
Protocol: as §1

PDE5A1 = molecular target: T12, PDE5A1 (Homo sapiens, UniProt O76074); assay: as above; format: biochemical; details: PDE5A1, 100 nM
T12 construct: Caliper
Protocol: as §1

PDE4B1 = molecular target: T13, PDE4B1 (Homo sapiens, UniProt Q07343); assay: as above; format: biochemical; details: PDE4B1, 100 nM
T13 construct: Caliper
Protocol: as §1

PDE1A1 = assay: as above; format: biochemical; details: PDE1A1, 100 nM
Protocol: as §1

PDE7B = molecular target: T14, PDE7B (Homo sapiens, UniProt Q9NP56); assay: as above; format: biochemical; details: 100 nM
T14 construct: Caliper
Protocol: as §1

PDE4C1 = molecular target: T15, PDE4C1 (Homo sapiens, UniProt Q08493); assay: as above; format: biochemical; details: PDE4C1, 100 nM
T15 construct: Caliper
Protocol: as §1

PDE7A = molecular target: T16, PDE7A (Homo sapiens, UniProt Q13946); assay: as above; format: biochemical; details: 100 nM
T16 construct: Caliper
Protocol: as §1

PDE3A = PDE3A (Homo sapiens, UniProt Q14432); assay: as above; format: biochemical; details: 100 nM
Protocol: as §1

PDE8A1 = molecular target: T17, PDE8A1 (Homo sapiens, UniProt O60658); assay: as above; format: biochemical; details: PDE8A1, 100 nM
T17 construct: Caliper
Protocol: as §1

234 kinases = assay: Screening of 234 kinases; format: biochemical; details: 10 μM
[1] = replicate #1, read-out: % inh. #1
[2] = replicate #2, read-out: % inh. #2

T6 sequence (Q9HCR9 whole entry, species assumed): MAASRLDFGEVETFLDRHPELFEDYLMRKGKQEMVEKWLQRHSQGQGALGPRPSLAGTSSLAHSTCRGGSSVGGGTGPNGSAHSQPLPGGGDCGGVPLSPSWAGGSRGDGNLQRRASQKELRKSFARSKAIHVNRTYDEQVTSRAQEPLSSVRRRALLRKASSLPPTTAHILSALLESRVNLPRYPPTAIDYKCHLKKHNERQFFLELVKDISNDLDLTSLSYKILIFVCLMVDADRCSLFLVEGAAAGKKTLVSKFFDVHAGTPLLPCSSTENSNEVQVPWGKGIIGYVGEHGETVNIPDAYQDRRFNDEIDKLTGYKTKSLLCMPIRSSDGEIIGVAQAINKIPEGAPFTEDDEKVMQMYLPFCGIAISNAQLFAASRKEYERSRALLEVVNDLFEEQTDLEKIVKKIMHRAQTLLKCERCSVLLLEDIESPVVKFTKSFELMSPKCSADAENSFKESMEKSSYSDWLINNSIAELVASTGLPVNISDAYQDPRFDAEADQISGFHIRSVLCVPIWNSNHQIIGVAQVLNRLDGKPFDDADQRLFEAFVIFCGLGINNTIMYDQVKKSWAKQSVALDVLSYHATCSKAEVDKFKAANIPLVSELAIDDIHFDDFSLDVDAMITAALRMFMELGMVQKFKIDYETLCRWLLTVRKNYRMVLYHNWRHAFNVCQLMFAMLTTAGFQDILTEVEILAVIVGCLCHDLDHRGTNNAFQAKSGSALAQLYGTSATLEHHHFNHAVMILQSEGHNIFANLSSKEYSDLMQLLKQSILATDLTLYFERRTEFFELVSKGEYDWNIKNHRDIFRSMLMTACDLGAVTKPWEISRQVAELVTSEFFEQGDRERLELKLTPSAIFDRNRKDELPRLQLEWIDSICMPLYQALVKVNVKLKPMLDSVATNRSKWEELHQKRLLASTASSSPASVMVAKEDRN
T7 sequence (Q13370 whole entry, species assumed): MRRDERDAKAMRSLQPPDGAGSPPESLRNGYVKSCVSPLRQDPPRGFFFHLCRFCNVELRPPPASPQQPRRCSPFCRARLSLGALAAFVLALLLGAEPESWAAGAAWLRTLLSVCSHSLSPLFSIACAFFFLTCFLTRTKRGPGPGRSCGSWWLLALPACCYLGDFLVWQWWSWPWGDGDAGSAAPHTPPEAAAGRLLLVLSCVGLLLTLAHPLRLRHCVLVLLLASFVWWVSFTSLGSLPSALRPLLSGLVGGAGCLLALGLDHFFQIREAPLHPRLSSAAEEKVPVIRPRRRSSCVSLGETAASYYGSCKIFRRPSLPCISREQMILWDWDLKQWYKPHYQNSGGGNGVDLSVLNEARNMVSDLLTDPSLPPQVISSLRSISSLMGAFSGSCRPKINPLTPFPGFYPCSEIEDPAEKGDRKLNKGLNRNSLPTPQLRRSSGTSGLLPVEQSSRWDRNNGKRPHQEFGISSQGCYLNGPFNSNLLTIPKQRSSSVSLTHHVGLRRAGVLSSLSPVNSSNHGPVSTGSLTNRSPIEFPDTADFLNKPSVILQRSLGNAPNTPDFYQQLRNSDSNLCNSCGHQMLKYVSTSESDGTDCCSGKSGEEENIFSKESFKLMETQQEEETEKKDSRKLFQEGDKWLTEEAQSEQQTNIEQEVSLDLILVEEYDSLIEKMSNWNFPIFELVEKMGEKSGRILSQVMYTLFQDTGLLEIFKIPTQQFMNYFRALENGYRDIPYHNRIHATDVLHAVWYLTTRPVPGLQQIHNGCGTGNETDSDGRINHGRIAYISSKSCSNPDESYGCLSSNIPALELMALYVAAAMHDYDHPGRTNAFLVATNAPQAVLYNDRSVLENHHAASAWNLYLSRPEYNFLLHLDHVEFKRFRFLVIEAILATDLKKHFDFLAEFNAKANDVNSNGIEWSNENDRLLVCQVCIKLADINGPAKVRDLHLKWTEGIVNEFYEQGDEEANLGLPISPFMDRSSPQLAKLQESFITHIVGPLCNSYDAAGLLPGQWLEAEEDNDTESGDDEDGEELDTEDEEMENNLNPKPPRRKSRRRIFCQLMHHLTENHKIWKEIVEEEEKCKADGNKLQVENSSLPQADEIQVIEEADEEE
T4 sequence (Q08499 1-748 isoform Q08499-11, species assumed): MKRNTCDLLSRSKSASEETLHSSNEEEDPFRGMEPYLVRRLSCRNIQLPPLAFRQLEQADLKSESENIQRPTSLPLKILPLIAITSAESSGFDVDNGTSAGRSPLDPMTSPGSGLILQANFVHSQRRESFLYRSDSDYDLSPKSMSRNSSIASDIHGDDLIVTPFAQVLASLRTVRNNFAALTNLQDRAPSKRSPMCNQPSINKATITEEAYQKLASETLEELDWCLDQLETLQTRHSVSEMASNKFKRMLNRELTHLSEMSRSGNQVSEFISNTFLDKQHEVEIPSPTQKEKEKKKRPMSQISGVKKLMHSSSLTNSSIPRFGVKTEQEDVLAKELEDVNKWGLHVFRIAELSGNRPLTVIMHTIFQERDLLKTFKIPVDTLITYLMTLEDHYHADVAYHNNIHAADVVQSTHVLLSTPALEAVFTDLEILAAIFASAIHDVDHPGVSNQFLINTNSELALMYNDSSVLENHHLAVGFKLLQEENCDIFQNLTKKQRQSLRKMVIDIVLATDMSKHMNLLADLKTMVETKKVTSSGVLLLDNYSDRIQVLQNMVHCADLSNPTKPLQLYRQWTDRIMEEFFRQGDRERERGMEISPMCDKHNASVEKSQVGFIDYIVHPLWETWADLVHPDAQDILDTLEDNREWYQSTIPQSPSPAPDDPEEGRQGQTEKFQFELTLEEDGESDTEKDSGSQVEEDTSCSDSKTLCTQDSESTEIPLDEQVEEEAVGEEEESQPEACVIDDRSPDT
T14 sequence (Q9NP56 whole entry, species assumed): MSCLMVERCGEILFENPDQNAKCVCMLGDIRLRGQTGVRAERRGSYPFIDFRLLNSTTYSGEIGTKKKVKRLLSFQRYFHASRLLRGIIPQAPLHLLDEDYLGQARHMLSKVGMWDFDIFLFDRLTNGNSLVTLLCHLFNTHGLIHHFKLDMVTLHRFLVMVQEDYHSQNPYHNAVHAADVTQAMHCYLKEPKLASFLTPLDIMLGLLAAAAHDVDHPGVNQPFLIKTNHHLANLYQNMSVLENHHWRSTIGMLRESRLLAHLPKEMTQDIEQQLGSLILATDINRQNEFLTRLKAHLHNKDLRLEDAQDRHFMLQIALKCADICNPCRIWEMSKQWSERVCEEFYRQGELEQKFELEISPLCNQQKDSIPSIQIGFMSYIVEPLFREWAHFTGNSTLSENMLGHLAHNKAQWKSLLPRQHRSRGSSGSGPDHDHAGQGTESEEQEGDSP
T1 sequence (Q14123 whole entry, species assumed): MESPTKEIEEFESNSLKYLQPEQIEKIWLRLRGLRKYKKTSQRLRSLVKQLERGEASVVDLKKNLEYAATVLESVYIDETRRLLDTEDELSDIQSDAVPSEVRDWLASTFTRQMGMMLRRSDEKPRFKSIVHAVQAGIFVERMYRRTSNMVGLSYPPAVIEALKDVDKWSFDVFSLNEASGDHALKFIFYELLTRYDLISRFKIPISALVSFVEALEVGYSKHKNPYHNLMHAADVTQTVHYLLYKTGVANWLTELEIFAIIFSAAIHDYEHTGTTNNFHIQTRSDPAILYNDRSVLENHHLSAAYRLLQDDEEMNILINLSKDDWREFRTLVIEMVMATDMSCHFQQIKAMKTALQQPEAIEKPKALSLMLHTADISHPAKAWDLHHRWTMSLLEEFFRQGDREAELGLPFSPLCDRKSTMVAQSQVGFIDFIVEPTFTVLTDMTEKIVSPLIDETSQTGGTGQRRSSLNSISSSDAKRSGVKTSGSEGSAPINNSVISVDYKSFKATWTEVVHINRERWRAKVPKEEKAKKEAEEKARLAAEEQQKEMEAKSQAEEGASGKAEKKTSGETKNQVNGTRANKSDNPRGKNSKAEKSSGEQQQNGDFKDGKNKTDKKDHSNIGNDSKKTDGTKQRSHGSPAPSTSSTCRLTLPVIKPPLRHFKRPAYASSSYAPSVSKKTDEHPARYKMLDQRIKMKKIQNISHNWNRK
T9 sequence (P27815 1-647 isoform P27815-4): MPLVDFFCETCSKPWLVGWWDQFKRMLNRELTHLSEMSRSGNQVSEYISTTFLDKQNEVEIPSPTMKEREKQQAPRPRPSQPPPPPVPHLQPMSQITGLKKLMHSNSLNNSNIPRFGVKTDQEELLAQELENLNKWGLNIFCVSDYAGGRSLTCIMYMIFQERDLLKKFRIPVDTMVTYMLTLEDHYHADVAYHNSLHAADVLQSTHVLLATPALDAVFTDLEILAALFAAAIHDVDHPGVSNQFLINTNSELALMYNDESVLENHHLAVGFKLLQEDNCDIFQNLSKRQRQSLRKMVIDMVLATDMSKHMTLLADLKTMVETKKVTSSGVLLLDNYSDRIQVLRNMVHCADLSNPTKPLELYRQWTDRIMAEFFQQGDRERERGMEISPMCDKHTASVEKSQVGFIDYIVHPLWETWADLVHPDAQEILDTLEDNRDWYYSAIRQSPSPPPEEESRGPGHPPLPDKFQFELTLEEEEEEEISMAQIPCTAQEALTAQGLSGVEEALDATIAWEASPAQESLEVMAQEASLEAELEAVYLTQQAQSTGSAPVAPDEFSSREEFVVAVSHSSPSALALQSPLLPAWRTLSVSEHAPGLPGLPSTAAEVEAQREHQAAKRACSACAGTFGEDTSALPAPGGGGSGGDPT

SMILES: COc1cc2c(cc1OC)-c1c/c(=N\c3c(C)cc(C)cc3C)n(C)c(=O)n1CC2 [trequinsin, 9,10-dimethoxy-3-methyl-2-(2,4,6-trimethylphenyl)imino-6,7-dihydropyrimido[6,1-a]isoquinolin-4-one]
- IC50 (PDE3): 0.25 nM

SMILES: CCN(CC)c1ccc(C2=NNC(=O)CC2C)cc1[N+](=O)[O-] (centres unmarked) [DNMDP, 6-(4-(diethylamino)-3-nitrophenyl)-5-methyl-4,5-dihydropyridazin-3(2H)-one]
- inhibition at 0.1 µM (PDE1C; read-out: % inhibition): 5%
- inhibition at 0.1 µM (PDE1C; [1]): 2%
- inhibition at 0.1 µM (PDE1C; [2]): 9%
- inhibition at 0.1 µM (PDE4D3; [1]): 14%
- inhibition at 0.1 µM (PDE4D3; [2]): 16%
- inhibition at 0.1 µM (PDE4D3; read-out: % inhibition): 15%
- inhibition at 0.1 µM (PDE10A1; [1]): 61%
- inhibition at 0.1 µM (PDE10A1; [2]): 65%
- inhibition at 0.1 µM (PDE10A1; read-out: % inhibition): 63%
- inhibition at 0.1 µM (PDE4D7; [1]): 19%
- inhibition at 0.1 µM (PDE4D7; [2]): 20%
- inhibition at 0.1 µM (PDE4D7; read-out: % inhibition): 20%
- inhibition at 0.1 µM (PDE9A2; [1]): 0%
- inhibition at 0.1 µM (PDE9A2; [2]): 5%
- inhibition at 0.1 µM (PDE9A2; read-out: % inhibition): 2%
- inhibition at 0.1 µM (PDE11A; read-out: % inhibition): 16%
- inhibition at 0.1 µM (PDE11A; [1]): 14%
- inhibition at 0.1 µM (PDE11A; [2]): 18%
- inhibition at 0.1 µM (PDE3B; read-out: % inhibition): 97%
- inhibition at 0.1 µM (PDE3B; [1]): 98%
- inhibition at 0.1 µM (PDE3B; [2]): 97%
- inhibition at 0.1 µM (PDE1B; read-out: % inhibition): -2%
- inhibition at 0.1 µM (PDE1B; [1]): -5%
- inhibition at 0.1 µM (PDE1B; [2]): 0%
- inhibition at 0.1 µM (PDE4A1A; read-out: % inhibition): 16%
- inhibition at 0.1 µM (PDE4A1A; [1]): 14%
- inhibition at 0.1 µM (PDE4A1A; [2]): 18%
- inhibition at 0.1 µM (PDE10A2; [1]): 67%
- inhibition at 0.1 µM (PDE10A2; [2]): 70%
- inhibition at 0.1 µM (PDE10A2; read-out: % inhibition): 68%
- inhibition at 0.1 µM (PDE2A; read-out: % inhibition): 8%
- inhibition at 0.1 µM (PDE2A; [1]): 6%
- inhibition at 0.1 µM (PDE2A; [2]): 10%
- inhibition at 0.1 µM (PDE5A1; [1]): 16%
- inhibition at 0.1 µM (PDE5A1; [2]): 16%
- inhibition at 0.1 µM (PDE5A1; read-out: % inhibition): 16%
- inhibition at 0.1 µM (PDE4B1; [1]): 21%
- inhibition at 0.1 µM (PDE4B1; [2]): 20%
- inhibition at 0.1 µM (PDE4B1; read-out: % inhibition): 21%
- % inhibition (PDE1A1): 5%
- % inh. #1 (PDE1A1; replicate #1): 3%
- % inh. #2 (PDE1A1; replicate #2): 7%
- inhibition at 0.1 µM (PDE7B; read-out: % inhibition): 8%
- inhibition at 0.1 µM (PDE7B; [1]): 5%
- inhibition at 0.1 µM (PDE7B; [2]): 11%
- inhibition at 0.1 µM (PDE4C1; [1]): 10%
- inhibition at 0.1 µM (PDE4C1; [2]): 14%
- inhibition at 0.1 µM (PDE4C1; read-out: % inhibition): 12%
- inhibition at 0.1 µM (PDE7A; read-out: % inhibition): 22%
- inhibition at 0.1 µM (PDE7A; [1]): 24%
- inhibition at 0.1 µM (PDE7A; [2]): 20%
- inhibition at 0.1 µM (PDE3A; read-out: % inhibition): 95%
- inhibition at 0.1 µM (PDE3A; [1]): 95%
- inhibition at 0.1 µM (PDE3A; [2]): 95%
- inhibition at 0.1 µM (PDE8A1; [1]): 10%
- inhibition at 0.1 µM (PDE8A1; [2]): 12%
- inhibition at 0.1 µM (PDE8A1; read-out: % inhibition): 11%
- kinase inhibition (234 kinases): no kinase inhibition
